From article PMC8961538, “N-Acylated and N-Alkylated 2-Aminobenzothiazoles Are Novel Agents That Suppress the Generation of Prostaglandin E2” (Biomolecules, 2022)

How the values were obtained:
[1] = system: PGE2 generation in rat mesangial cells; conditions: cited from earlier work; for EC50: read-out: EC50, inhibition of PGE2 formation
[2] = system: allodynia after facial carrageenan injection; conditions: after facial carrageenan injection in mice; cited from earlier work
[3] = system: PGE2 generation in CD4+ T cells; design: method as in PMID 25213337; conditions: cited from earlier work
[4] = system: PGE2 generation in rat mesangial cells; test: Suppression of IL-1β/forskolin-stimulated PGE2 generation in rat renal mesangial cells; format: cell-based; conditions: Rattus norvegicus, Mesangial cell, 24 h
Procedure: Rat renal mesangial cells (clone MZ B1), isolated and characterized as previously described, were cultivated in RPMI 1640 medium supplemented with 10% fetal bovine serum; 10 mM 4-(2-hydroxyethyl)-1-piperazineethanesulfonic acid (HEPES), pH 7.4; 6 µg/mL of bovine insulin; 5 µg/mL of transferrin; 5 nM sodium selenite; 100 units/mL of penicillin; and 100 µg/mL of streptomycin. The cells were incubated for 4 h in Dulbecco’s modified Eagle’s medium (DMEM) containing 10 mM HEPES, pH 7.4, and 0.1 mg/mL of fatty acid-free bovine serum albumin (BSA), prior to stimulation.
Confluent mesangial cells in 24-well plates were pretreated for 20 min with varying concentrations of inhibitors and then stimulated for 24 h in a total volume of 400 µL of DMEM containing 0.1 mg/mL of BSA, in the absence or presence of 1 nM interleukin 1β (IL-1) plus 5 μM forskolin (Fk). Thereafter, the supernatants were collected and centrifuged for 5 min at 1000× g. The PGE2 in the supernatant was quantified using an enzyme-linked immunoassay (Enzo Life Sciences, Lörrach, Germany) following the manufacturer’s recommendations.
Statistical analysis of the data was performed using one-way analysis of variance (ANOVA) followed by a Bonferroni’s post hoc test for multiple comparisons (GraphPad Prism 8.4.3., San Diego, CA, USA). The half maximal effective concentrations (EC50) of the inhibitors were calculated using the same software.

[5] = system: rat-paw carrageenan-induced edema; test: Rat-paw carrageenan-induced-edema assay; format: in vivo; conditions: 0.01 mmol/kg, same dose as indomethacin
Procedure: The anti-inflammatory activities of selected aminobenzothiazole derivatives were determined by employing the rat-paw carrageenan-induced-edema assay, as previously described. Only male animals (180–220 g body weight) were used. Each group was composed of five animals. The animals were divided into three five-membered groups, and all the tested compounds were suspended in water (0.01 mmol/mL/kg body weight), with a few drops of Tween 80, and ground in a mortar before being administered intraperitoneally simultaneously. After treatment with the tested compounds in group 1, a 2nd group was used as a positive control (indomethacin at 0.01 mmol/mL/kg body weight, i.p.), and another group (3rd) served as the control in which water was administered (negative control). The compounds were injected intraperitoneally at the same time as carrageenan was given by intradermal injection. The rats were euthanized 3.5 h post-injection. The weight of the uninjected with carrageenan paw was subtracted from the weight of the injected paw for each animal. The change in paw weight for the treated animals was compared to that for the control animals and expressed as the percent inhibition of edema. The values of CPE % are the means from three different experiments with standard errors of the mean less than 10%. The statistical significance of the results was established with Student’s t-test, for * p < 0.01 and ** p < 0.05. All the animal experiments performed in the manuscript were conducted in compliance with institutional guidelines. Our studies were in accordance with recognized guidelines on animal experimentation (guidelines for the care and use of laboratory animals published by the Greek Government 160/1991, based on EU regulations 86/609). The rats were kept in the Centre of the School of Veterinary Medicine (EL54 BIO42), Aristotle University of Thessaloniki, which is registered by the official state veterinary authorities (presidential degree 56/2013, in harmonization with the European Directive 2010/63/EEC). The experimental protocols were approved by the Animal Ethics Committee of the Prefecture of Central Macedonia (no. 270079/2500).

[6] = target: T1, human recombinant group VIA phospholipase A2 (GVIA iPLA2) (Homo sapiens, UniProt O60733); test: Lipidomics-based mixed micelle PLA2 activity assay, GVIA iPLA2; format: biochemical; conditions: mole fraction of inhibitor in total substrate interface required to inhibit enzyme activity by 50%
T1 sequence (O60733 1-806): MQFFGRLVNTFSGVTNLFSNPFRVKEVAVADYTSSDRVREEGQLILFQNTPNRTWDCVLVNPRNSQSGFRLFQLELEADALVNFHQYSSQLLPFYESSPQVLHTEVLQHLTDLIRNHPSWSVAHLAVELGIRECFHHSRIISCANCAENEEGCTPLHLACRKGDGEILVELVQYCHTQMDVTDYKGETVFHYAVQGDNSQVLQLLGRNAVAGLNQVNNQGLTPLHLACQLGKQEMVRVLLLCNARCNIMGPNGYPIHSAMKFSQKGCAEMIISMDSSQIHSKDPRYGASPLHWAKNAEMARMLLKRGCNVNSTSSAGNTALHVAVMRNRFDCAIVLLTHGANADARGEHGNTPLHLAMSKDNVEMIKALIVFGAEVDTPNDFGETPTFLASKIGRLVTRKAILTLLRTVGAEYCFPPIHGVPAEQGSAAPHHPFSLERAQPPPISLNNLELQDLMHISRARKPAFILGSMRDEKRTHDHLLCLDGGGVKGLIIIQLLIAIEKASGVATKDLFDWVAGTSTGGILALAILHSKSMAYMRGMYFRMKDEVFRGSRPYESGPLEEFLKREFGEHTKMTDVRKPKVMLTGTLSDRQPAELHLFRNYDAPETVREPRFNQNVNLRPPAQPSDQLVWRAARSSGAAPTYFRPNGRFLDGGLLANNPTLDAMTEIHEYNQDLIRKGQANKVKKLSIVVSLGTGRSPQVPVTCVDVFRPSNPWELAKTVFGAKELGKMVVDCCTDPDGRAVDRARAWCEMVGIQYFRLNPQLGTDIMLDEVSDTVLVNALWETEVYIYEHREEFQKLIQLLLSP

[7] = system: NO formation in cytokine-stimulated rat mesangial cells; test: IL-1/Fk-stimulated nitrite (NO) formation in rat mesangial cells, Griess assay; format: cell-based; conditions: IL-1 plus Fk, 24 h; nitrite in supernatants
Procedure: Figure S1. Effect of the inhibitor 19a on IL-1/Fk-stimulated nitrite formation in rat mesangial
Cells were pretreated for 20 min with the indicated concentrations of 19a and then stimulated for
24 h in the absence (-) or presence (+) of 1 nM interleukin 1β (IL-1) plus 5 µM forskolin (Fk).
Nitrite was quantified in supernatants using Griess assay as previously described.1 Data are
presented as mM of nitrite and are means +/- S.D. (n = 3).
1β induction of nitric oxide synthase in renal mesangial cells. Eur. J. Pharmacol. 1993,
(1 picture or pasted object on this page, not shown here)

[8] = system: GVIA iPLA2; design: method as in PMID 16203828; conditions: in vitro; cited from earlier work
[9] = system: GIVA cPLA2; design: method as in PMID 16203828; conditions: in vitro; cited from earlier work
[10] = system: hyperalgesia; design: method as in PMID 16203828; conditions: in vivo; cited from earlier work
[11] = system: spinal PGE2 release; design: method as in PMID 16203828; conditions: in vivo; cited from earlier work

## O=C(CCCCc1ccc2ccccc2c1)c1nc2ccccc2o1 [Compound 2]
[1]; rat mesangial cells
  EC50: 790 nM

## CCCCC/C=C\C/C=C\C/C=C\C/C=C\CCCC(=O)C(F)(F)F [arachidonoyl trifluoromethyl ketone]
[1]; rat mesangial cells
  Inhibition of cytokine-stimulated generation of PGE2: inhibits
[2]
  Effect on allodynia: modulates allodynia

## O=C(CCCCc1ccc2ccccc2c1)c1nc2ccccc2s1 [Compound 1]
[1]; comparison value for compound 1
  % inhibition of PGE2 generation: 85%
[1]; rat mesangial cells
  EC50: 710 nM

## O=C(CCCCc1ccc2ccccc2c1)C(F)(F)F [FKGK18, 1,1,1-trifluoro-6-(2-naphthalenyl)-2-hexanone]
[3]
  Inhibition of generation of PGE2: inhibit the generation of PGE2

## c1ccc2cc(CCCNc3nc4ccccc4s3)ccc2c1 [Compound 19a, N-(3-(Naphthalen-2-yl)Propyl)Benzo[d]Thiazol-2-Amine]
[4]; 3 μM, 1 nM IL-1β plus 5 μM forskolin
  inhibition at 3 µM: > 80%
[4]; 0.1 to 3 µM, IL-1β plus forskolin, read-out: EC50 (μM), inhibition of PGE2 generation
  IC50: 0.118 µM
[5]
  In vivo anti-inflammatory activity compared with indomethacin: higher than that of indomethacin
[5]; listed as GK543
  In vivo anti-inflammatory activity compared with indomethacin: greater than that of indomethacin
[6]
  XI(50) for GVIA iPLA2: 0.03 mole fraction
[7]
  Effect on NO production: No effect
other
  melting point: 112 to 114 °C

## CCCCCCCCCCCCCCC(=O)C(=O)NCCCC(=O)OCC [AX048, ethyl 4-(2-oxohexadecanamido)butanoate]
[8]
  XI(50) for GVIA iPLA2: 0.027 mole fraction
[9]
  XI(50) for GIVA cPLA2: 0.022 mole fraction
[10]
  Anti-hyperalgesic activity: anti-hyperalgesic activity
[11]
  Inhibition of spinal PGE2 release: inhibits spinal PGE2 release
